Measurements as given in patent US20060258729A1, “Antibacterial pyrazole carboxylic acid hydrazides” (priority 2002, published 2006).

What was measured:
[1] = system: E. faecium clinical isolate; assay: Inhibition of bacterial growth (MIC), Efcm; type: cell-based; conditions: 16 to 18 hours, 37° C.
Protocol: (§1) Each compound was assayed against a panel of a strain of Bacillus subtilis, of strains of antibiotic-resistant and sensitive Enterococcus and Staphylococcus species, and of a strain of the Gram-negative bacterium Escherichia coli. Compounds were dissolved in DMSO at 100× the desired highest concentration and added to one well of a 96-well microassay plate. Two-fold serial drug dilutions were made across the plate in DMSO to yield 11 concentrations (usually 80-0.078 μg/mL) plus an untreated control. Drugs were then transferred to fresh plates using 1.5 μL per well. Log phase cultures were diluted to yield a concentration of 1×10^5 colony forming units/mL in either LB or BHI medium and transferred to the plates containing drug for a final volume of 150 μL. Each well, including the DMSO controls, contained a final concentration of 1% DMSO. Plates were incubated with shaking at 37° C. for 16 to 18 hours. Cell growth was determined by measuring optical density (570 nm, 1 cm path length) in a microplate reader. MIC (minimum inhibitory concentration) is equivalent to the lowest concentration at which growth is not observed. The bacterial strains and MIC determinations have been well characterized and are described elsewhere (Tarantino et al., Antimicrob. Agents Chemother., 43: 1982-1987 (1999); Daly et al., Antimicrob. Agents Chemother., 44: 2217-2221 (2000)).

[2] = system: S. aureus Smith strain; assay: Inhibition of bacterial growth (MIC), Sm; type: cell-based, Staphylococcus aureus; conditions: 16 to 18 hours, 37° C.
Protocol: as §1

[3] = target: T1, E. coli pol IIIE (Escherichia coli, UniProt P10443); assay: DNA polymerase assay, E. coli pol IIIE; type: biochemical; conditions: 80 μg/mL (190-260 μM) final concentration; all four dNTPs
T1 construct: purchased Enzyco, Denver, Colo
T1 sequence (P10443 whole entry): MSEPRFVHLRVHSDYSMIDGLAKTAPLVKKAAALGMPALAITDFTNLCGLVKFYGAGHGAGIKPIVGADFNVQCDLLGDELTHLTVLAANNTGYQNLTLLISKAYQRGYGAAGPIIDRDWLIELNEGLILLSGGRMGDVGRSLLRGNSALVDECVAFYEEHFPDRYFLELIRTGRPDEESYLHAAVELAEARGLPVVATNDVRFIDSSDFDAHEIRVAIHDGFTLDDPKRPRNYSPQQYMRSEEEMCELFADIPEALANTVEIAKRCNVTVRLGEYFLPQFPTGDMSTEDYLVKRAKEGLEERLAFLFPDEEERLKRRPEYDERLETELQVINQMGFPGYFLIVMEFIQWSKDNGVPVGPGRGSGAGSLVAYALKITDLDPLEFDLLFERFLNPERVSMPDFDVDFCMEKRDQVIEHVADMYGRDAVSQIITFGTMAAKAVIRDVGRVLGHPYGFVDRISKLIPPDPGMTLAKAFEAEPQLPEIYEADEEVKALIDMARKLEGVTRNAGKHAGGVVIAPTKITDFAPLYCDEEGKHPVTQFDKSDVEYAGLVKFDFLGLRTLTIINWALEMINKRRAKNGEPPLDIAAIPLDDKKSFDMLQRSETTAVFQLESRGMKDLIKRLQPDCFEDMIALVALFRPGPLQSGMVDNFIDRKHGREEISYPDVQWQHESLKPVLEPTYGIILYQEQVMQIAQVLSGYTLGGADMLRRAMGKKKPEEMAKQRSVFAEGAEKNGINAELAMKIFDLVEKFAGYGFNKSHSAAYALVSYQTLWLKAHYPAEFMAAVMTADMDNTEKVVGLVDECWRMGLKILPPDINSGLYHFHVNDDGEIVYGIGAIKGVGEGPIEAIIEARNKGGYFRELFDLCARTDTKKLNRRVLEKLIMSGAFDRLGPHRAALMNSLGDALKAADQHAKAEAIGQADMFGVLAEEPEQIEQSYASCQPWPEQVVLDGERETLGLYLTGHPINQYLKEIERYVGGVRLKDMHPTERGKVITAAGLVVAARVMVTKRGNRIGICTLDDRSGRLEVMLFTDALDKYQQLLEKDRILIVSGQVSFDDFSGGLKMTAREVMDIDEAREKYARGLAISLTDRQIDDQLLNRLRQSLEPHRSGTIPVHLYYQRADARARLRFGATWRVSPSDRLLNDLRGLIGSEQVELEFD
Protocol: (§2) Recombinant, purified pol IIIC and pol IIIE from Bacillus subtilis were obtained using known methods (Hammond et al., Gene 98: 29-36 (1991), regarding pol IIIC; Barnes et al., J. Bacteriol. 184, 3834-3838 (2002), regarding pol IIIE). Recombinant, purified pol IIIE from Escherichia coli was obtained from a commercial source (Enzyco, Denver, Colo.). The enzyme assays were performed in 96-well plate format using the same assay mix for all three enzymes. Each 25 μL assay contained 30 mM Tris, pH 7.5, 10 mM magnesium acetate, 4 mM dithiothreitol, 20% glycerol, with 10 μM dATP, dCTP, dGTP and dTTP (3H-labelled at 1.44 Ci/mmole) and 0.4 mg/mL activated calf thymus DNA as substrates. Dilutions of compounds were added to the plate in 1% DMSO (1 μL/well). Assays were initiated by the addition of 0.025 to 0.06 units of enzyme (1 unit is the amount required to incorporate 250 pmoles of [^3H] dTMP in a standard assay), incubated for 10 min at 30° C. and terminated by the addition of 200 μL of cold 10% trichloroacetic acid, 10 mM sodium pyrophosphate. Precipitated labeled DNA was collected on glass fiber filter plates that had been pre-wet with ice cold 1 M HCl, 100 mM sodium pyrophosphate. The plates were washed with the HCl solution followed by ice cold 90% ethanol and then dried and counted in a liquid scintillation counter. The calculated IC50 is the concentration needed to inhibit 50% of the DNA polymerase activity in the presence of all four dNTP substrates. In addition, percent inhibition values are calculated as the percent reduction in the activity of a DMSO (diluent) control.

[4] = system: Enterococcus faecalis strain 29212; assay: Inhibition of bacterial growth (MIC), Efcl; type: cell-based; conditions: 16 to 18 hours, 37° C.
Protocol: as §1

[5] = target: T2, B. subtilis pol IIIE (Bacillus subtilis, UniProt O34623); assay: DNA polymerase assay, B. subtilis pol IIIE; type: biochemical; conditions: 80 μg/mL (190-260 μM) final concentration; all four dNTPs
T2 construct: made in house
T2 sequence (O34623 whole entry): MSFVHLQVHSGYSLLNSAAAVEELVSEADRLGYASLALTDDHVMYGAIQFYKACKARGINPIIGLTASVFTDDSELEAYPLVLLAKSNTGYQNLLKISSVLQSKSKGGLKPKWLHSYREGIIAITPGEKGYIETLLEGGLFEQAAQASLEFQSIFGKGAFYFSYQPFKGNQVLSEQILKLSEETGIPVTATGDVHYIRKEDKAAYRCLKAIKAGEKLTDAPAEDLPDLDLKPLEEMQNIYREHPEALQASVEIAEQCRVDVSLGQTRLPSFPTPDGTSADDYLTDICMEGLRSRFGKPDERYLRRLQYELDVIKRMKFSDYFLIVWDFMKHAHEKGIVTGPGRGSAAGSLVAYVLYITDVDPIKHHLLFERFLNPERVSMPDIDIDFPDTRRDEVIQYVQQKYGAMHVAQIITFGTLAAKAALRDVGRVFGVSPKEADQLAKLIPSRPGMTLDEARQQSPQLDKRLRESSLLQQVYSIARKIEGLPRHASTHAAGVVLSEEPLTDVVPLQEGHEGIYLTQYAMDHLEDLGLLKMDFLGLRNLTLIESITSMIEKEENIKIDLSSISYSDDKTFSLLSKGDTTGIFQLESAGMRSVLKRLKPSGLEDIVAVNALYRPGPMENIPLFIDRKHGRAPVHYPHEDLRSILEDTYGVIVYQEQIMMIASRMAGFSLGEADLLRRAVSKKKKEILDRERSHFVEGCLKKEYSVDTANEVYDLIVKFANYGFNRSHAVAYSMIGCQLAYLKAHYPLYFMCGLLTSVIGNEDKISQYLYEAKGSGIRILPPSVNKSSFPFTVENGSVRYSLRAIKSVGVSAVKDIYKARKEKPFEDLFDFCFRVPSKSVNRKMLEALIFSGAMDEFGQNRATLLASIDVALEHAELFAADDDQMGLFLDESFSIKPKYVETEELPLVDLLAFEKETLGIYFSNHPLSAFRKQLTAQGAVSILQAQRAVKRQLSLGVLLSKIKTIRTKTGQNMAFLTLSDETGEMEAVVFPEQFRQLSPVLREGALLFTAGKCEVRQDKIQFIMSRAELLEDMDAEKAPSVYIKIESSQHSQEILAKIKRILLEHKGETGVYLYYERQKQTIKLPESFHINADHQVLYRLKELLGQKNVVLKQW
Protocol: as §2

[6] = target: T3, B. subtilis pol IIIC (Bacillus subtilis, UniProt P13267); assay: DNA polymerase assay, B. subtilis pol IIIC; type: biochemical; conditions: 80 μg/mL (190-260 μM) final concentration; all four dNTPs
T3 construct: made in house
T3 sequence (P13267 whole entry): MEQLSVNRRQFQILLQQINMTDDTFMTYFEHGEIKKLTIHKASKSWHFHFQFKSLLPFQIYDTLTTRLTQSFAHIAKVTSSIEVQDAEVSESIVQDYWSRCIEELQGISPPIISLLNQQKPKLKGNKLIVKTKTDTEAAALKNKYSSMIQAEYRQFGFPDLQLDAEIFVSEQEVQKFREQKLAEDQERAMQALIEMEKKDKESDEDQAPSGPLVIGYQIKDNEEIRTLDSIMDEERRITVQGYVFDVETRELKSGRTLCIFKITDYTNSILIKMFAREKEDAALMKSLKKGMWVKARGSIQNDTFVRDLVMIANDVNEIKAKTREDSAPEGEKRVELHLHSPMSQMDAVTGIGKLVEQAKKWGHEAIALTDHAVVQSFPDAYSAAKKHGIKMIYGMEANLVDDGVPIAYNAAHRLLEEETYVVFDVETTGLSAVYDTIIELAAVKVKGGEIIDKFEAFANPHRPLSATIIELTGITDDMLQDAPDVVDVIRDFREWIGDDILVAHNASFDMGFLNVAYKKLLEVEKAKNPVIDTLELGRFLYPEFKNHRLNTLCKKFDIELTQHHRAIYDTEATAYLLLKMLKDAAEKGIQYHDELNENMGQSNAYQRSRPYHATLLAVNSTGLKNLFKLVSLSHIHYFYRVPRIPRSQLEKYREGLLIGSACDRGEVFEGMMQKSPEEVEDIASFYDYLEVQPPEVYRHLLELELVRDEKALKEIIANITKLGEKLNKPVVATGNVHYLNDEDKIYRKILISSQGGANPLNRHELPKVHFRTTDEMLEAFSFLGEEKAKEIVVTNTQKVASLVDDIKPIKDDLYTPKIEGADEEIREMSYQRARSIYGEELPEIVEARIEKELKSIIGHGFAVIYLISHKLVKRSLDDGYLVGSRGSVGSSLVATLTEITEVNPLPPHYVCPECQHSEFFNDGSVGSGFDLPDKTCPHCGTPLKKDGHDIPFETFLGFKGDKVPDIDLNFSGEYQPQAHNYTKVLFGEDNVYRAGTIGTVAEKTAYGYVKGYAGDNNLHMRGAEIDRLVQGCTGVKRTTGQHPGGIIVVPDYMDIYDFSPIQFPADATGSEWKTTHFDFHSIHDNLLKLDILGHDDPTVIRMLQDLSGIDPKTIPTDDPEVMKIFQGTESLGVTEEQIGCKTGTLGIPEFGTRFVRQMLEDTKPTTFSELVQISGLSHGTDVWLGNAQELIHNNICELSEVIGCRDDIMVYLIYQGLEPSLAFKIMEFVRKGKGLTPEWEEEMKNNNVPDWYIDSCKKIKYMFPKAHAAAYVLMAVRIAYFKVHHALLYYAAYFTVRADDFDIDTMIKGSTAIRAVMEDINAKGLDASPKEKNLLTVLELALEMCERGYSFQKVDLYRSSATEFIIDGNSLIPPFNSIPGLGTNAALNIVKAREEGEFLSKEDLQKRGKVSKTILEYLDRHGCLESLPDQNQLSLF
Protocol: as §2, with “Each 25 μL assay contained 30 mM Tris, pH 7.5, 10 mM magnesium acetate, 4 mM dithiothreitol, 20% glycerol, with 10 μM dATP, dCTP, dGTP and dTTP (3H-labelled at 1.44 Ci/mmole) and 0.4 mg/mL activated calf thymus DNA as substrates.” left out, “The calculated IC50 is the concentration needed to inhibit 50% of the DNA polymerase activity in the presence of all four dNTP substrates.” left out

[7] = system: Escherichia coli strain J53; assay: Inhibition of bacterial growth (MIC), Ec; type: cell-based; conditions: 16 to 18 hours, 37° C.
Protocol: as §1

[8] = system: vancomycin-resistant Enterococcus strain B42762; assay: Inhibition of bacterial growth (MIC), VRE; type: cell-based; conditions: 16 to 18 hours, 37° C.
Protocol: as §1

[9] = system: Staphylococcus aureus strain IP 8; assay: Inhibition of bacterial growth (MIC), Sa; type: cell-based; conditions: 16 to 18 hours, 37° C.
Protocol: as §1

[10] = system: Bacillus subtilis strain BD54; assay: Inhibition of bacterial growth (MIC), Bs; type: cell-based; conditions: 16 to 18 hours, 37° C.
Protocol: as §1

[11] = system: methicillin-resistant S. aureus strain 1094; assay: Inhibition of bacterial growth (MIC), MRSA; type: cell-based, Staphylococcus aureus; conditions: 16 to 18 hours, 37° C.
Protocol: as §1

SMILES	Minimum Inhibitory Concentration for Bacterial Growth, Efcm [1]	Minimum Inhibitory Concentration for Bacterial Growth, Sm [2]	Percent Enzymatic Inhibition E. coli pol IIIE [3]	Minimum Inhibitory Concentration for Bacterial Growth, Efcl [4]	Percent Enzymatic Inhibition B. subtilis pol IIIE [5]	Percent Enzymatic Inhibition B. subtilis pol IIIC [6]	Minimum Inhibitory Concentration for Bacterial Growth, Ec [7]	Minimum Inhibitory Concentration for Bacterial Growth, VRE [8]	Minimum Inhibitory Concentration for Bacterial Growth, Sa [9]	Minimum Inhibitory Concentration for Bacterial Growth, Bs [10]	Minimum Inhibitory Concentration for Bacterial Growth, MRSA [11]
O=C(NN=Cc1cc(Br)ccc1O)c1cc(-c2ccccc2)n[nH]1 [Compound 6]	10 µg/mL	>80 µg/mL	9.0%	8 µg/mL	7.7%	11.3%	>80 µg/mL	8 µg/mL	10 µg/mL	>80 µg/mL	40 µg/mL
COc1cccc(C=NNC(=O)c2cc(-c3ccc(C)cc3)n[nH]2)c1O [Compound 8]	>80 µg/mL	>80 µg/mL	–	>80 µg/mL	–	19.7%	>80 µg/mL	>80 µg/mL	>80 µg/mL	>80 µg/mL	>80 µg/mL
O=C(NN=Cc1ccccc1O)c1cc(-c2ccccc2)n[nH]1 [Compound 9]	>80 µg/mL	>80 µg/mL	–	>80 µg/mL	–	–	>80 µg/mL	>80 µg/mL	>80 µg/mL	>80 µg/mL	>80 µg/mL
COc1cccc(-c2cc(C(=O)NN=Cc3cccc(O)c3)[nH]n2)c1 [Compound 10]	>80 µg/mL	>80 µg/mL	Inactive	>80 µg/mL	9.6%	Inactive	>80 µg/mL	>80 µg/mL	>80 µg/mL	>80 µg/mL	>80 µg/mL
Cc1ccc(C=NNC(=O)c2cc(-c3ccccc3)n[nH]2)cc1 [Compound 11]	>80 µg/mL	>80 µg/mL	Inactive	>80 µg/mL	16.7%	1.3%	>80 µg/mL	>80 µg/mL	>80 µg/mL	>80 µg/mL	>80 µg/mL
CCCCc1cc(C=NNC(=O)c2cc(-c3ccccc3)n[nH]2)cc(CCCC)c1O [Compound 12]	>80 µg/mL	>80 µg/mL	7.2%	>80 µg/mL	7.6%	Inactive	>80 µg/mL	>80 µg/mL	>80 µg/mL	>80 µg/mL	>80 µg/mL
COc1ccc(-c2cc(C(=O)NN=Cc3ccccc3)[nH]n2)cc1 [Compound 13]	>80 µg/mL	>80 µg/mL	3.4%	>80 µg/mL	Inactive	2.9%	>80 µg/mL	>80 µg/mL	>80 µg/mL	>80 µg/mL	>80 µg/mL
COc1cccc(-c2cc(C(=O)NN=Cc3ccc(O)cc3)[nH]n2)c1 [Compound 14]	>80 µg/mL	80 µg/mL	Inactive	>80 µg/mL	18.1%	0.5%	>80 µg/mL	80 µg/mL	80 µg/mL	>80 µg/mL	80 µg/mL
CCN1C(=O)C(=NNC(=O)c2cc(-c3ccccc3)n[nH]2)c2ccccc21 [Compound 20]	–	–	Inactive	–	0.5%	0.2%	–	–	–	–	–
CCN1C(=O)C(=NNC(=O)c2cc(-c3cccc(-c4ccccc4)c3)n[nH]2)c2ccccc21 [Compound 21]	>80 µg/mL	>80 µg/mL	–	>80 µg/mL	–	–	>80 µg/mL	>80 µg/mL	>80 µg/mL	>80 µg/mL	>80 µg/mL
